This is an account of results in ChEMBL document CHEMBL1165899, “Synthesis and antitumor evaluation of novel cyclic arylsulfonylureas: ADME-T and pharmacophore prediction” (2010).

Holding throughout (type): functional
In one test the test system is SK-MEL-2. In words: Growth inhibition of human SK-MEL-2 cells at 10 uM after 48 hrs by sulforhodamine B assay relative to control. The following applies: SK-MEL-2, 48 h, read-out: GI. A general note: In SRB staining, fixed cells bind dye roughly in proportion to their protein.
The subject of a further test is M14. Kind of test: Growth inhibition of human M14 cells at 10 uM after 48 hrs by sulforhodamine B assay relative to control. The following applies: M14, 48 h, read-out: GI.
A further test concerns IGROV-1. Kind of test: Growth inhibition of human IGROV1 cells at 10 uM after 48 hrs by sulforhodamine B assay relative to control. The following applies: IGROV-1, 48 h, read-out: GI.
For a further test, the system named is OVCAR-8. Kind of test: Growth inhibition of human OVCAR8 cells at 10 uM after 48 hrs by sulforhodamine B assay relative to control. As to conditions: OVCAR-8, 48 h, read-out: GI.
The next test concerns RXF 393. Kind of test: Growth inhibition of human RXF393 cells at 10 uM after 48 hrs by sulforhodamine B assay relative to control. As to conditions: RXF 393, 48 h, read-out: GI.

As to `Cc1ccc(S(=O)(=O)N2C(=O)CC(=O)N(c3ccc(Cl)cc3)C2=O)cc1`, the inhibition of growth at 10 µM is 73.9% in the test with SK-MEL-2, -7.35% in the test with M14, 65.6% in the test with IGROV-1 and 54.1% in the test with OVCAR-8.
With `O=C1N/C(=C\c2ccc(Cl)cc2)C(=O)N1S(=O)(=O)c1ccc(Cl)cc1`, the inhibition of growth at 10 µM is 17.6% in the test on SK-MEL-2; -20.1% in the test on M14; 81% with IGROV-1; 4.01% in the test with OVCAR-8; 76.2% in the test on RXF 393.
As for `COc1ccc(/C=C2\NC(=O)N(S(=O)(=O)c3ccccc3)C2=O)cc1`, the inhibition of growth at 10 µM with SK-MEL-2 worked out at 11.6%; in the test on IGROV-1 it was 115%; in the test with OVCAR-8, 5.23%; in the test on RXF 393 it was 96.5%.
For `COc1ccc(/C=C2\NC(=O)N(S(=O)(=O)c3ccc(Cl)cc3)C2=O)cc1`, in that order: 8.98%, -1.97%, -1.23% and 84.1%.
For the molecule `O=c1c2ccccc2n(S(=O)(=O)c2ccc(Cl)cc2)c(=O)n1-c1ccccc1`, the inhibition of growth at 10 µM with SK-MEL-2 is 79.3%; with M14, 17.4%; with IGROV-1, 91.4%; in the test on OVCAR-8, 40.9%.
For `O=C1CC(=O)N(S(=O)(=O)c2ccc(Cl)cc2)C(=O)N1c1ccccc1`, in that order: 65.1%, 8.19%, 34.1% and 58.9%.
On to `O=C1N/C(=C\c2ccccc2)C(=O)N1S(=O)(=O)c1ccc(Cl)cc1`, for which the inhibition of growth at 10 µM in the test on SK-MEL-2 was 11.7%; in the test with IGROV-1, -9.05%; with OVCAR-8, 3.88%; in the test on RXF 393, 0.92%.
For `O=C1N/C(=C\c2ccc(Cl)cc2)C(=O)N1S(=O)(=O)c1ccccc1`, the inhibition of growth at 10 µM in the test on SK-MEL-2 came out at 19.9%; in the test on IGROV-1, 1.13%; in the test on OVCAR-8, 6.79%; with RXF 393, 7.42%.
For `CN(C)c1ccc(/C=C2\NC(=O)N(S(=O)(=O)c3ccccc3)C2=O)cc1`, the inhibition of growth at 10 µM is 3.98% in the test with SK-MEL-2; -2.88% with M14; 107% in the test on IGROV-1; 1.17% in the test on OVCAR-8; 80.3% in the test with RXF 393.
For `COc1ccc(-n2c(=O)c3ccccc3n(S(=O)(=O)c3ccccc3)c2=O)cc1`, in that order: -43.2%, 56.5%, 63.2%, 26% and 43%.
`O=c1c2ccccc2n(S(=O)(=O)c2ccccc2)c(=O)n1-c1ccccc1`: the inhibition of growth at 10 µM in the test on SK-MEL-2 turned out to be 70.4%; with M14, 1.02%; with IGROV-1 it was 86.8%; with OVCAR-8, 33.2%.
For `COc1ccc(N2C(=O)CC(=O)N(S(=O)(=O)c3ccc(Cl)cc3)C2=O)cc1`, in that order: 61.1%, -3.04%, 76.5% and 42.4%.
